For one data set, the system named is HEp-2 tumors. The data set is described as follows: Electroporation therapy of HEp-2 tumors implanted subcutaneously in nude mice (intratumoral drug plus bipolar square pulses). Type of data set: in vivo, BALB/c A nu/nu mice. The procedure: BALB/c A nu/nu mice were surgically implanted with HEp-2 tumors in a subcutaneous sac made in the right flank of nude mice. The tumors 34 were allowed to grow and were treated when their average size was about 80 mm^3. The drug, bleomycin, 0.5 units dissolved in 0.15 ml of saline, was injected in each mouse intratumorally using a 30 gauge needle. The drug was injected very slowly at the tumor base and the needle direction rotated (fanning technique) for uniform drug distribution in the tumor 34. The mice in the control were only pulsed D−E+; D=Drug, E=Electric field, +/−denote presence or absence, respectively) while those in the treated group were pulsed and received drug (D+E+). A time lapse of 10+/−1 minute was maintained between the drug injection and the application of electric pulse to allow bleomycin to spread uniformly throughout the tumor 34. The electrical pulses, generated by the prototype bipolar square wave pulse generator, were delivered to the tumor 34 through a 6-needle array (see for example, U.S. Pat. No. 5,702,359 herein incorporated by reference), inserted to the depth of the tumor 34. […] The mice in both the control and pulse-treated groups were monitored every day for mortality and sign of any other disease.
FIG. 16 illustrates the results for the experimental and control groups.

For data set [1] the following is noted: octanol and water; cited from earlier work.

As to bleomycin, the tumor volume entry in the data set with HEp-2 tumors (D+E+ group, versus substantial increase in control group D-E+) was “decreased”. Further, in the data set with HEp-2 tumors (D+E+ group, bleomycin 0.5 units in 0.15 ml saline intratumorally, bipolar square pulses via 6-needle array 10+/-1 min later, 65 days following treatment, 7/8 mice), the “treated mice with complete tumor regression” value worked out at 87.5%. In addition, the “treated mice with partial regression” value with HEp-2 tumors (D+E+ group, bleomycin 0.5 units intratumorally plus bipolar square pulses, 65 days following treatment, 1/8 mice) came out at 12.5%. Moreover, the “tumor reaction to electroporation therapy” value with HEp-2 tumors (nearly all the mice treated by both the drug (D) and the pulse (E)) was “severe early edema, and later necrosis of the tumor”. For the same substance, the “extent of partial tumor regression” value in the data set with HEp-2 tumors (the 1/8 D+E+ mouse with partial regression) was > 80%. The “log P” value in data set [1] is listed as “very negative”.

Values taken from patent US7054685B2, “Method and apparatus for reducing electroporation-mediated muscle reaction and pain response” (Genetronics, Inc., priority 1999, dated 2006).
